Data published in US8119630B2 (Arrow Therapeutics Limited, priority 2002, dated 2012).

What follows are molecules tested on RSV (assay: XTT assay, RSV-infected Vero cells). Conditions: Table 1; Vero cells infected with RSV, m.o.i.≈0.2, 6 days at 33° C.; read-out: XTT IC50.
Format: cell-based, Respiratory Syncytial Virus (RSV)
Description: Examples 1 to 74 and 83 to 124 were tested using the following protocol.
The inner 60 wells of 96 well tissue culture plates were seeded with Vero cells at 3×10^4 cells/well (1×10^4 cells/well for toxicity studies) in 100 or 150 μl of medium and incubated at 37° C. overnight or until nearing confluency. For primary screen, 25 μl compounds were added directly to 100 μl medium in single wells to duplicate plates. A third plate was prepared for simultaneous toxicity investigation.
For follow-up investigation, 70 μl of compound in duplicate wells were added directly to culture medium at 3.2× final concentration and ½ log serially diluted down columns of plate. A duplicate plate was prepared for simultaneous toxicity investigation.
Cells were infected with 25 μl RSV to give m.o.i.≈0.2. Some 100 μl of sterile distilled water were added to the outer wells of the plate and incubated at 33° C. for 6 days. Some 0.25 μl/ml PMS were added to stock XTT solution, final conc. […]. Then 25 μl warmed XTT/PMS solution were added to each well and incubated for 5 hours at 37° C. Plates were shaken (DynaTech Vari-Shaker) vigorously for 10 mins and allowed to cool for 15 mins before sealing. Absorbance at 450 nm was measured and data analysed using Microsoft Excel software.
Maximum OD450nm reading (uninfected, untreated control cells) corresponded to 100% inhibition. Minimum OD450nm readings (infected control cells) corresponded to 0% inhibition. Log 10 concentration was plotted against OD450nm and IC50 (Table 1) values were calculated from either reading 50% value from graph or using regression analysis.

`O=C1Nc2ccccc2C(c2ccccc2)=NC1NC(=O)N1CCCCC1` (centres unmarked) [Example 16] and `O=C(NC1N=C(c2ccccc2)c2ccccc2NC1=O)C1CCCCC1` (centres unmarked) [Example 8] are the same in IC50: 2 µM for the first, 2 µM for the second.

Compared with `O=C(NC1N=C(c2ccccc2)c2ccccc2NC1=O)c1cccs1` (centres unmarked) [Example 14, Thiophene-2-carboxylic acid (2-oxo-5-phenyl-2,3-dihydro-1H-benzo[e][1,4]diazepin-3-yl)-3-amide], `COc1ccccc1C(=O)NC1N=C(c2ccccc2)c2ccccc2NC1=O` (centres unmarked) [Example 11, 2-Methoxy N-(2-oxo-5-phenyl-2,3-dihydro-1H-benzo[e][1,4]diazepin-3-yl)-benzamide] is 3-fold lower in IC50: 1.5 µM for the first, 0.5 µM for the second. The second is the more potent here.

Compared with `COc1ccccc1NC(=O)NC1N=C(c2ccccc2)c2ccccc2NC1=O` (centres unmarked) [Example 68, (2-Methoxy-phenyl)-3-(2-oxo-5-phenyl-2,3-dihydro-1H-benzo[e][1,4]diazepin-3-yl)-urea], `COc1ccc(C(=O)NC2N=C(c3ccccc3)c3ccccc3NC2=O)cc1` (centres unmarked) [Example 10, 4-Methoxy N-(2-oxo-5-phenyl-2,3-dihydro-1H-benzo[e][1,4]diazepin-3-yl)-benzamide] is 1.5-fold higher in IC50: 1 µM for the first, 1.5 µM for the second. The first is the more potent here.

Compared with `CS(=O)(=O)NC1N=C(c2ccccc2)c2cc(Cl)ccc2NC1=O` (centres unmarked) [Example 53, N-(7-Chloro-2-oxo-5-phenyl-2,3-dihydro-1H-benzo[e][1,4]diazepin-3-yl)-methanesulformide], `CCCS(=O)(=O)NC1N=C(c2ccccc2)c2ccccc2NC1=O` (centres unmarked) [Example 36] is 3-fold higher in IC50: 5 µM for the first, 15 µM for the second.

Same assay, conditions: human respiratory syncytial virus, 144 h; Table 1; Vero cells infected with RSV, m.o.i.≈0.2, 6 days at 33° C.; read-out: XTT IC50

Work on `O=C(Nc1ccc(Cl)cc1)NC1N=C(c2ccccc2)c2ccccc2NC1=O` (centres unmarked) [Example 71, 1-(4-Chloro-phenyl)-3-(2-oxo-5-phenyl-2,3-dihydro-1H-benzo[e][1,4]diazepin-3-yl)-urea] yielded an IC50 of 3 µM.

Same assay, conditions: human respiratory syncytial virus, Vero, 144 h, read-out: XTT IC50 (uM), Table 1; Vero cells infected with RSV, m.o.i.≈0.2, 6 days at 33° C.

`CCN(CC)C(=O)NC1N=C(c2ccccc2)c2ccccc2NC1=O` (centres unmarked) [Example 2, 1,1-Diethyl-3-(2-oxo-5-phenyl-2,3-dihydro 1H-benzo[e][1,4]diazepin-3-yl)-urea] and `CCCC(=O)NC1N=C(c2ccccc2)c2ccccc2NC1=O` (centres unmarked) [Example 4, N-(2-Oxo-5-phenyl-2,3-dihydro-1H-benzo[e][1,4]diazepin-3-yl)-butyramide] are within 1.5-fold of each other in IC50: 4 µM for the first, 5 µM for the second.

First: O=C(NC1N=C(c2ccccc2)c2cc(Cl)ccc2NC1=O)c1ccco1 (centres unmarked) [Example 54, Furan-2-carboxylic acid (7-chloro-2-oxo-5-phenyl-2,3-dihydro-1H-benzo[e][1,4]diazepin-3-yl)-amide]
Second: O=C(NC1N=C(c2ccccc2)c2ccccc2NC1=O)c1ccco1 (centres unmarked) [Example 15, Furan-2-carboxylic acid (2-oxo-5-phenyl-2,3-dihydro-1H-benzo[e][1,4]diazepin-3-yl)-amide]
The IC50 of the first is 1.5-fold higher: 1.5 µM for the first, 1 µM for the second. The second is the more potent here.

Going from `O=C(Cc1ccc([N+](=O)[O-])cc1)NC1N=C(c2ccccc2)c2ccccc2NC1=O` (centres unmarked) [Example 63, 2-(4-Nitro-phenyl)-N-(2-oxo-5-phenyl-2,3-dihydro-1H-benzo[e][1,4]diazepin-3-yl)-acetamide] to `O=C(Cc1cccc([N+](=O)[O-])c1)NC1N=C(c2ccccc2)c2ccccc2NC1=O` (centres unmarked) [Example 64, 2-(3-Nitro-phenyl)-N-(2-oxo-5-phenyl-2,3-dihydro-1H-benzo[e][1,4]diazepin-3-yl)-acetamide], the IC50 falls from 1.7 µM to 1 µM (1.7-fold).

Going from `O=C(NC1N=C(c2ccccc2)c2cc(Cl)ccc2NC1=O)c1ccccc1[N+](=O)[O-]` (centres unmarked) [Example 59, N-(7-Chloro-2-oxo-5-phenyl-2,3-dihydro-1H-benzo[e][1,4]diazepin-3-yl)-2-nitro-benzamide] to `O=C(NC1N=C(c2ccccc2)c2ccccc2NC1=O)c1ccccc1[N+](=O)[O-]` (centres unmarked) [Example 26, 2-Nitro-N-(2-oxo-5-phenyl-2,3-dihydro-1H-benzo[e][1,4]diazepin-3-yl)-benzamide], the IC50 falls from 5 µM to 2 µM (2.5-fold). The second is the more potent here.

`CC(C)(C)C(=O)NC1N=C(c2ccccc2)c2ccccc2NC1=O` (centres unmarked) [Example 6, 2,2-Dimethyl-N-(2-Oxo-5-phenyl-2,3-dihydro-1H-benzo[e][1,4]diazepin-3-yl)-propionamide] and `CS(=O)(=O)NC1N=C(c2ccccc2)c2ccccc2NC1=O` (centres unmarked) [Example 35, N-(2-Oxo-5-phenyl-2,3-dihydro-1H-benzo[e][1,4]diazepin-3-yl)methanesulfonamide] are the same in IC50: 6 µM for the first, 6 µM for the second.

`Cc1ccc(NC(=O)NC2N=C(c3ccccc3)c3ccccc3NC2=O)cc1` (centres unmarked) [Example 72, 1-(2-oxo-5-phenyl-2,3-dihydro-1H-benzo[e][1,4]diazepin-3-yl)-3-p-tolyl-urea] and `O=C(NC1N=C(c2ccccc2)c2ccccc2NC1=O)c1ccc([N+](=O)[O-])cc1` (centres unmarked) [Example 18, 4-Nitro-N-(2-oxo-5-phenyl-2,3-dihydro-1H-benzo[e][1,4]diazepin-3-yl)-benzamide] are within 1.5-fold of each other in IC50: 1.5 µM for the first, 2 µM for the second.

First: CC(C)C(=O)NC1N=C(c2ccccc2)c2cc(Cl)ccc2NC1=O (centres unmarked) [Example 52, N-(7-Chloro-2-oxo-5-phenyl-2,3-dihydro-1H-benzo[e][1,4]diazepin-3-yl)-isobutyramide]
Second: CC(=O)NC1N=C(c2ccccc2)c2cc(Cl)ccc2NC1=O (centres unmarked) [Example 51, N-(7-Chloro-2-oxo-5-phenyl-2,3-dihydro-1H-benzo[e][1,4]diazepin-3-yl)-acetamide]
The IC50 of the first is 1.7-fold lower: 3 µM for the first, 5 µM for the second. The first is the more potent here.

Going from `COc1ccc(C(=O)NC2N=C(c3ccccc3)c3cc(Cl)ccc3NC2=O)cc1` (centres unmarked) [Example 58, N-(7-Chloro-2-oxo-5-phenyl-2,3-dihydro-1H-benzo[e][1,4]diazepin-3-yl)-4-methoxy-benzamide] to `O=C(NC1N=C(c2ccccc2)c2cc(Cl)ccc2NC1=O)c1cccs1` (centres unmarked) [Example 55, Thiophene-2-carboxylic acid (7-chloro-2-oxo-5-phenyl-2,3-dihydro-1H-benzo[e][1,4]diazepin-3-yl)-amide], the IC50 rises from 1.2 µM to 3 µM (2.5-fold). The first is the more potent here.

Going from `O=C1Nc2ccccc2C(c2ccccc2)=NC1NCc1ccccc1[N+](=O)[O-]` (centres unmarked) [Example 42, 3-(2-Nitro-benzylamino)-5-phenyl-1,3-dihydro-benzo[e][1,4]diazepin-2-one] to `O=C1Nc2ccccc2C(c2ccccc2)=NC1NCc1cccc([N+](=O)[O-])c1` (centres unmarked) [Example 43, 3-(3-Nitro-benzylamino)-5-phenyl-1,3-dihydro-benzo[e][1,4]diazepin-2-one], the IC50 rises from 20 µM to 30 µM (1.5-fold).

`O=C1Nc2ccccc2C(c2ccccc2)=NC1NS(=O)(=O)c1cccc(Br)c1` (centres unmarked) [Example 39, 3-Bromo-N-(2-oxo-5-phenyl-2,3-dihydro-1H-benzo[e][1,4]diazepin-3-yl)-benzenesulfonamide] and `O=C1Nc2ccccc2C(c2ccccc2)=NC1NS(=O)(=O)c1ccc(Br)cc1` (centres unmarked) [Example 40, 4-Bromo-N-(2-oxo-5-phenyl-2,3-dihydro-1H-benzo[e][1,4]diazepin-3-yl)-benzenesulfonamide] are the same in IC50: 10 µM for the first, 10 µM for the second.

Going from `O=C1Nc2ccccc2C(c2ccccc2)=NC1NC(=O)N1CCOCC1` (centres unmarked) [Example 17, Morpholine-4-carboxylic acid (2-oxo-5-phenyl-2,3-dihydro-1H-benzo[e][1,4]diazepin-3-yl)-amide] to `O=C(NC1N=C(c2ccccc2)c2ccccc2NC1=O)C1CCCC1` (centres unmarked) [Example 7, Cyclopentanecarboxylic acid (2-oxo-5-phenyl-2,3-dihydro-1H-benzo[e][1,4]diazepin-3-yl)-amide], the IC50 falls from 5 µM to 2 µM (2.5-fold). The second is the more potent here.

First: O=C(NC1N=C(c2ccccc2)c2ccccc2NC1=O)c1cccc(C(F)(F)F)c1 (centres unmarked) [Example 12, N-(2-Oxo-5-phenyl-2,3-dihydro-1H-benzo[e][1,4]diazepin-3-yl)-3-trifluoromethyl-benzamide]
Second: O=C(NC1N=C(c2ccccc2)c2ccccc2NC1=O)c1ccc(Cl)c(Cl)c1 (centres unmarked) [Example 21, 3,4-Dichloro-N-(2-oxo-5-phenyl-2,3-dihydro-1H-benzo[e][1,4]diazepin-3-yl)-benzamide]
The IC50 of the first is 2.4-fold lower: 2.5 µM for the first, 6 µM for the second.

Going from `COc1cccc(CC(=O)NC2N=C(c3ccccc3)c3ccccc3NC2=O)c1` (centres unmarked) [Example 61, 2-(3-Methoxy-phenyl)-N-(2-oxo-5-phenyl-2,3-dihydro-1H-benzo[e][1,4]diazepin-3-yl)-acetamide] to `COc1ccccc1CC(=O)NC1N=C(c2ccccc2)c2ccccc2NC1=O` (centres unmarked) [Example 60, 2-(2-Methoxy-phenyl)-N-(2-oxo-5-phenyl-2,3-dihydro-1H-benzo[e][1,4]diazepin-3-yl)-acetamide], the IC50 rises from 3 µM to 5 µM (1.7-fold).

Compared with `O=C1Nc2ccccc2C(c2ccccc2)=NC1NS(=O)(=O)c1ccccc1F` (centres unmarked) [Example 41, 2-Fluoro-N-(2-oxo-5-phenyl-2,3-dihydro-1H-benzo[e][1,4]diazepin-3-yl)-benzenesulfonamide], `O=C1Nc2ccccc2C(c2ccccc2)=NC1NCc1ccccc1C(F)(F)F` (centres unmarked) [Example 47, 5-Phenyl-3-(2-trifluoromethyl-benzylamino) 1,3-dihydro-benzo[e][1,4]diazepin-2-one] is 3-fold higher in IC50: 10 µM for the first, 30 µM for the second.

In the case of `O=C(NC1N=C(c2ccccc2)c2cc(Cl)ccc2NC1=O)C1CCCCC1` (centres unmarked) [Example 56, Cyclohexanecarboxylic acid (7-Chloro-2-oxo-5-phenyl-2,3-dihydro-1H-benzo[e][1,4]diazepin-3-yl)-amide], the IC50 is reported as 5 µM.
